Test results reported in patent US20220153746A1, “NITROGEN OXIDE-DONATING PDE-5 AND/OR PDE-6 INHIBITOR COMPOUNDS, AND USES THEREOF” (ILDONG PHARMACEUTICAL CO., LTD., priority 2020, published 2022).

Legend:
human PDE-5A1 = human PDE-5A1 (Homo sapiens, UniProt O76074); test: Human PDE-5A1 inhibition assay (fluorescence polarization, FAM-cGMP); type: biochemical; conditions: read-out: IC50 (μM) PDE5A1
human PDE-6C = human PDE-6C (Homo sapiens, UniProt P51160); test: Human PDE-6C inhibition assay (fluorescence polarization, FAM-cGMP); type: biochemical; conditions: read-out: IC50 (μM) PDE6C
[1] = Plasma protein binding assay (equilibrium dialysis); type: in vitro ADME; conditions: human plasma, dialysis 4 hours at 37° C.
Protocol: (§1) The dialysis device used in this example is a 96-well equilibrium dialysis plate (Cat #1006, HT Dialysis LLC, Gales Gerry, CT), and HTD 96 a/b dialysis membrane strips (Cat #1101, MWCO 12-14 kDa, HT Dialysis LLC). The dialysis device was assembled following the manufacturer's instructions.
(§2) The dialysis membrane strips were soaked in ultra-pure water at room temperature for approximately 1 hour. Each membrane strip containing 2 membranes was separated and soaked in 20:80 ethanol/water (v/v) for approximately 20 minutes, after which they were ready for used or were stored in the solution at 2-8° C. for up to a month. Prior to experiment, the membrane was rinsed and soaked for 20 minutes in ultra-pure water.
(§3) On the day of the experiment, the plasma was thawed by running under col tap water and centrifuged at 3220 rpm for 5 minutes to remove any clos. The pH value of the resulting plasma was checked. Only plasma with pH value with 7.0-8.0 could be used.
(§4) Both test and control compounds were dissolved in DMSO to achieve 10 mM stock solutions. Working solutions (400 μM) if test and control compounds were prepared by diluting 10μ of stock solutions with 240 μL of DMSO. Loading matrix solutions (2 μM) of both test and control compounds were prepared by diluting 5 μL of working solutions with 995 μL of blank matrix.
(§5) To prepare the loading matrix containing the test compound or control compounds, aliquots of either test compound working solutions or control compound working solution were spiked into blank matrix to achieve final test concentrations. The concentration of organic solvent in the final solutions were no more than 1% (normally 0.5%). The samples were mixture thoroughly before being used.
(§6) To prepare the time zero (T0) samples to be used for recovery determinations. 50 μL aliquots of loading matrix solution were transferred in triplicate to the sample collection plate. The samples were immediately matched with opposite blank buffer to obtain a final volume of 100 μL of 1:1 matrix/dialysis buffer (v/v) in each well. 500 μL of stop solution were added to these T0 samples. They were then stored at 2-8° C. pending further processes along with other post-dialysis samples.
(§7) To load the dialysis device, an aliquot of 150 μL of the loading matrix was transferred to the donor side of each dialysis well in triplicate, and 150 μL of the dialysis buffer was loaded to the received side of the well. The dialysis was placed in humidified incubator at 37° C. with 5% CO2 on a shaking platform that rated slowly (about 100 rpm) for 4 hours.
(§8) At the end of the dialysis, aliquots of 50 μL of samples were taken from both the buffer side and the matrix side of the dialysis deice. These samples were transferred into new 96-well plates (the sample collection plates). Each sample was mixed with an equal volume of opposite blank matrix (buffer or matrix) to reach a final volume of 100 μL of 1:1 matrix/dialysis buffer (v/v) in each well. All samples were further processed by adding 500 μL of stop solution containing internal standards. The mixture was vortexed and centrifuged at 4000 rpm for about 20 minutes. An aliquot of 100 μL of supernatant of all the samples were then removed for LC-MS/MS analysis.
(§9) The single blank samples were prepared by transferring 50 μL of blank matrix to a 96 well plate and adding 50 μL of blank PBS buffer to each well. The blank plasma must match the species of plasma used in the plasma side of the well. Then the matrix-matched samples were further processed by adding 500 μL of stop solution containing internal standards, following the same sample processing method as the dialysis samples.

human plasma proteins = test: as above; type: in vitro ADME; conditions: 2 μM, dialysis 4 hours at 37° C.
Protocol: as §1, §2, §3, §4, §5, §6, §7, §8, §9

[2] = test system: intraocular pressure (IOP) of ocular normotensive rabbits; test: IOP lowering effect in ocular normotensive rabbits (Example 8; Example 9 Phase 1); type: in vivo, New Zealand White Rabbits (Oryctolagus cuniculus); conditions: for OD IOP Mean: 50 μL/eye once, treated right eye, Day 1
Description: This example illustrates the procedures and results of the intraocular pressure (IOP) lowering effect of compound 18 as compared to Latanoprostene bunod and latanoprost at different concentrations in ocular normotensive rabbits.
Forty (40) male New Zealand white rabbits were divided into 4 groups with 10 animals per group. Animals were then randomly assigned to groups based on body weight.
Latanoprostene bunod ophthalmic solution (LBN, 0.024%) and latanoprost eye drops (0.005%) were used as positive controls and dosed with the same volumes into the right eyes of the tested animals in groups 1 and 2 once.
Compound 18 was instilled into the right eyes of the tested animals in groups 3 (10 mg/mL) and 4 (20 mg/mL) at 50 μL per eye once.
All left eyes of the tested animals in each group were dosed with vehicle solution at 50 μL per eye.
The intraocular pressures (IOPs) were measured once at pre-dose and then once at 1, 2, 4, 6, 8, and 10 hours post dose for each group of animals. FIGS. 1 to 4 show the results from the IOP lowering studies for all four tested groups.
Phase 1: To confirm the IOP lowering effect of test article at different concentrations in ocular normotensive rabbits. Compound 18 was instilled into right eyes of animals in groups 3 and 4, 50 μL/eye, once. 0.024% latanoprostene bunod ophthalmic solution (LBN) and 0.005% latanoprost eye drops were served as positive control and be dosed with same volume into right eyes of groups 1 and 2 animals once. All left eyes of animals in each group were dosed with vehicle once, 50 μL/eye. IOPs was measured once at pre-dose and once at 1, 2, 4, 6, 8, 10 hours post dose. […]
Delivery Method: Drawed 50 μL of the articles with a pipette, pulled out the lower eyelid of the animal, dropped the article into the conjunctiva sac, and gently closed the upper and lower eyelids for a few times.
Species/Strain: New Zealand White Rabbits (Oryctolagus cuniculus). The New Zealand White Rabbit was used in this study. This is commonly used specie for non-clinical studies of ophthalmic formulations, for which there is a large historical database, and the relative large cornea size is suitable for topical operations.
Restrained the animal, made the testing eye perpendicular to the probe of the TonoVet tonometer, measured the IOP for at least three times until the values are stable. The mean of the last three stable values were calculated as the final IOP value.
IOP Measurement in Ocular Normotensive Rabbits: IOP was measured at pre-dose and once at 1, 2, 4, 6, 8, 10 hours post dose in study phase 1.

Chain of human PDE-6C (P51160 whole entry): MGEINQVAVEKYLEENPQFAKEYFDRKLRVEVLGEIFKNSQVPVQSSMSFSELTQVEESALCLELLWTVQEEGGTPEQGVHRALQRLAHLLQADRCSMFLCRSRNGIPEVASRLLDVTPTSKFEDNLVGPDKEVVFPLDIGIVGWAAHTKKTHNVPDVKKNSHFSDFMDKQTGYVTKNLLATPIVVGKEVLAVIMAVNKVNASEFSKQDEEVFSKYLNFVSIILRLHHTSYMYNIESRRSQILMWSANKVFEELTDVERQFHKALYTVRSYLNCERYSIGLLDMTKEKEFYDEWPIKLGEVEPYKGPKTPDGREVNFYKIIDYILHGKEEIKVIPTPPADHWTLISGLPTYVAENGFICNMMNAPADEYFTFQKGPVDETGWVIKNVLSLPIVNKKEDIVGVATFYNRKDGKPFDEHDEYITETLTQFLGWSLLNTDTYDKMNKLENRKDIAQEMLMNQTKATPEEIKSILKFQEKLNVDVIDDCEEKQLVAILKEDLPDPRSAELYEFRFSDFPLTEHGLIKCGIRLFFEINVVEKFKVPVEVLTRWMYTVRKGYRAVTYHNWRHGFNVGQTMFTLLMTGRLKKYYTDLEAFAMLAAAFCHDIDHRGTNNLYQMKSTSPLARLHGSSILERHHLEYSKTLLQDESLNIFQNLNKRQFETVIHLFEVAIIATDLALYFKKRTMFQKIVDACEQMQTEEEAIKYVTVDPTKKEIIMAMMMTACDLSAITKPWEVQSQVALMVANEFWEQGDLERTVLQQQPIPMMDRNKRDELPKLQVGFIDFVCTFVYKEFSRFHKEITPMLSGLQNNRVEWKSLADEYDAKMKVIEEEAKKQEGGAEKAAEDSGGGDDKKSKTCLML

| SMILES | IC50 (human PDE-5A1) [µM] | IC50 (human PDE-6C) [µM] | fraction unbound at 4 h, 2 µM [1] | % Bound (human plasma proteins) [%] | IOP after administration ([2]; Example 8, both 10 mg/mL and 20 mg/mL doses) | IOP compared with the vehicle treated eyes ([2]; Phase 1, 10 mg/mL, at 1, 2, 4 h post dosing, p≤0.05) | IOP compared with the vehicle treated eyes ([2]; Phase 1, 20 mg/mL, at 1, 2, 4, 8, 10 h post dosing (8, 10 h, p≤0.05; 1, 4 h, p≤0.01; 2 h, p≤0.001)) | OD IOP Mean ([2]; Phase 1 Group 3, 10 mg/mL (1%), 1 h post dose) | OD IOP Mean ([2]; Phase 1 Group 3, 10 mg/mL (1%), 2 h post dose) | OD IOP Mean ([2]; Phase 1 Group 3, 10 mg/mL (1%), 4 h post dose) | OD IOP Mean ([2]; Phase 1 Group 3, 10 mg/mL (1%), 6 h post dose) | OD IOP Mean ([2]; Phase 1 Group 3, 10 mg/mL (1%), 8 h post dose) | OD IOP Mean ([2]; Phase 1 Group 3, 10 mg/mL (1%), 10 h post dose) | OD IOP Mean ([2]; Phase 1 Group 4, 20 mg/mL (2%), 1 h post dose) | OD IOP Mean ([2]; Phase 1 Group 4, 20 mg/mL (2%), 2 h post dose) | OD IOP Mean ([2]; Phase 1 Group 4, 20 mg/mL (2%), 4 h post dose) | OD IOP Mean ([2]; Phase 1 Group 4, 20 mg/mL (2%), 6 h post dose) | OD IOP Mean ([2]; Phase 1 Group 4, 20 mg/mL (2%), 8 h post dose) | OD IOP Mean ([2]; Phase 1 Group 4, 20 mg/mL (2%), 10 h post dose) |
| --- | --- | --- | --- | --- | --- | --- | --- | --- | --- | --- | --- | --- | --- | --- | --- | --- | --- | --- | --- |
| CCCc1nn(C)c2c(=O)[nH]c(-c3cc(S(=O)(=O)N4CC(CCCO)C4)ccc3OCC)nc12 [Compound 4, 5-(2-ethoxy-5-((3-(3-hydroxypropyl)azetidin-1-yl)sulfonyl)phenyl)-1-methyl-3-propyl-1,6-dihydro-7H-pyrazolo[4,3-d]pyrimidin-7-one] | < 0.01 | < 0.01 | 0.0399 | 96.01 | – | – | – | – | – | – | – | – | – | – | – | – | – | – | – |
| CCCc1nn(C)c2c(=O)[nH]c(-c3cc(S(=O)(=O)N4CC(CCCO[N+](=O)[O-])C4)ccc3OCC)nc12 [Compound 18, 3-(1-((4-ethoxy-3-(1-methyl-7-oxo-3-propyl-6,7-dihydro-1H-pyrazolo[4,3-d]pyrimidin-5-yl)phenyl)sulfonyl)azetidin-3-yl)propyl nitrate] | – | – | 0.0048 | 99.52 | significantly lower the IOP | significant decreased IOPs | significant decreased IOPs | 12.50 | 13.30 | 14.17 | 15.27 | 15.57 | 16.53 | 11.47 | 11.93 | 13.70 | 14.33 | 15.20 | 15.40 |
